The melting point is the temperature of the solid-liquid transition.

Turning to `CC(C)N(Cc1ccc(C(=O)O)cc1)c1nc(-c2ccc(NS(=O)(=O)c3ccc(Cl)c(Cl)c3)cc2)cs1` [Example 105, 4-((N-(4-(4-(3,4-dichlorobenzenesulfonylamino)phenyl)-2-thiazolyl)-N-isopropylamino)methyl)benzoic acid], the melting point lay within 193 to 195 °C.

For `CC(C)N(Cc1ccc(C(=O)O)cc1)c1nc(-c2ccc(NS(=O)(=O)c3ccc(C(F)(F)F)cc3)cc2)cs1` [Example 106, 4-((N-isopropyl-N-(4-(4-(4-trifluoromethylbenzenesulfonylamino)phenyl)-2-thiazolyl)amino)methyl)benzoic acid], the melting point lay within 132 to 134 °C.

For `CC(C)N(Cc1ccc(C(=O)O)cc1)c1nc(-c2ccc(N(Cc3ccccc3)Cc3ccccc3)cc2)cs1` [Example 109, 4-((N-(4-(4-dibenzylaminophenyl)-2-thiazolyl)-N-isopropylamino)methyl)benzoic acid], the melting point lay in the range of 144 to 146 °C.

For the compound `O=C(O)c1ccc(CN(CC2CCCCC2)c2nc(-c3ccc(N(Cc4ccc(Cl)c(Cl)c4)Cc4ccc(Cl)c(Cl)c4)cc3)cs2)cc1` [Example 117, 4-((N-(4-(4-(bis(3,4-dichlorobenzyl)amino)phenyl)-2-thiazolyl)-N-cyclohexylmethylamino)methyl)benzoic acid], the melting point was 120 °C (dec.).

Compound `CN(Cc1ccc(Cl)c(Cl)c1)c1ccc(-c2csc(N(Cc3ccc(C(=O)O)cc3)CC3CCCCC3)n2)cc1` [Example 118, 4-((N-cyclohexylmethyl-N-(4-(4-(N-(3,4-dichlorobenzyl)-N-methylamino)phenyl)-2-thiazolyl)amino)methyl)benzoic acid] registered a melting point of 125 to 127 °C.

Turning to `C=CCN(Cc1ccc(C2CCCCC2)cc1)c1ccc(-c2csc(N(C)Cc3ccc(C(=O)O)cc3)n2)cc1` [Example 119, 4-((N-(4-(4-(N-allyl-N-(4-cyclohexylbenzyl)amino)phenyl)-2-thiazolyl)-N-methylamino)methyl)benzoic acid], the melting point fell in the range of 139 to 141 °C.

For `CN(Cc1ccc(C(=O)[O-])cc1)c1nc(-c2ccc(OCc3ccc(C4CCCCC4)cc3)cc2)cs1.[Na+]` [Example 120, sodium 4-((N-(4-(4-(4-cyclohexylbenzyloxy)phenyl)-2-thiazolyl)-N-methylamino)methyl)benzoate], the melting point was 250 °C (dec.).

In the case of `CN(c1ccc(C(=O)O)cc1)c1nc(-c2ccc(NCc3ccc(Cl)c(Cl)c3)cc2)cs1` [Example 128, 4-(N-(4-(4-(3,4-dichlorobenzylamino)phenyl)-2-thiazolyl)-N-methylamino)benzoic acid], the melting point lay in the range of 223 to 225 °C.

For `O=C(O)c1ccc(N(CC2CCCCC2)c2nc(-c3ccc(NCc4ccc(Cl)c(Cl)c4)cc3)cs2)cc1` [Example 129, 4-(N-cyclohexylmethyl-N-(4-(4-(3,4-dichlorobenzylamino)phenyl)-2-thiazolyl)amino)benzoic acid], the melting point lay within 187 to 189 °C.

`CC(C)c1ccc(CNc2ccc(-c3csc(N(CC4CCCCC4)c4ccc(C(=O)O)cc4)n3)cc2)cc1` [Example 130, 4-(N-cyclohexylmethyl-N-(4-(4-(4-isopropylbenzylamino)phenyl)-2-thiazolyl)amino)benzoic acid] came in with a melting point of 200 to 202 °C.

On to `CC(C)Cc1ccc(CNc2ccc(-c3csc(N(CC4CCCCC4)c4ccc(C(=O)O)cc4)n3)cc2)cc1` [Example 131, 4-(N-cyclohexylmethyl-N-(4-(4-(4-isobutylbenzylamino)phenyl)-2-thiazolyl)amino)benzoic acid], for which the melting point lay within 167 to 169 °C.

`CN(Cc1ccc(C2CCCCC2)cc1)c1ccc(-c2csc(N(C)c3ccc(C(=O)O)cc3)n2)cc1` [Example 132, 4-(N-(4-(4-(N-(4-cyclohexylbenzyl)-N-methylamino)phenyl)-2-thiazolyl)-N-methylamino)benzoic acid] yielded a melting point of 185 to 189 °C.

Take `CN(c1ccc(C(=O)O)cc1)c1nc(-c2ccc(NCc3ccc(C(F)(F)F)cc3)cc2)cs1` [Example 133, 4-(N-methyl-N-(4-(4-(4-trifluoromethylbenzylamino)phenyl)-2-thiazolyl)amino)benzoic acid]: the melting point is 230 °C (dec.).

Take `O=C(O)c1ccc(N(CC2CCCCC2)c2nc(-c3ccc(NCc4ccc(C(F)(F)F)cc4)cc3)cs2)cc1` [Example 134, 4-(N-cyclohexylmethyl-N-(4-(4-(4-trifluoromethylbenzylamino)phenyl)-2-thiazolyl)amino)benzoic acid]: the melting point was 199 to 203 °C.

Take `CN(Cc1ccc(C(F)(F)F)cc1)c1ccc(-c2csc(N(C)c3ccc(C(=O)O)cc3)n2)cc1` [Example 137, 4-(N-methyl-N-(4-(4-(N-methyl-N-(4-trifluoromethylbenzyl)amino)phenyl)-2-thiazolyl)amino)benzoic acid]: the melting point lay in the range of 218 to 220 °C.

Take `O=C(O)c1ccc(Nc2nc(-c3cccc(OCc4ccc(C5CCCCC5)cc4)c3)cs2)cc1` [Example 138, 4-(4-(3-(4-cyclohexylbenzyloxy)phenyl)-2-thiazolylamino)benzoic acid]: the melting point lay in the range of 235 to 236 °C.

`CN(c1ccc(C(=O)O)cc1)c1nc(-c2cccc(OCc3ccc(C4CCCCC4)cc3)c2)cs1` [Example 139, 4-(N-(4-(3-(4-cyclohexylbenzyloxy)phenyl)-2-thiazolyl)-N-methylamino)benzoic acid]: the melting point was 250 °C (dec.).

On to `CCN(c1ccc(C(=O)O)cc1)c1nc(-c2cccc(OCc3ccc(C4CCCCC4)cc3)c2)cs1` [Example 140, 4-(N-(4-(3-(4-cyclohexylbenzyloxy)phenyl)-2-thiazolyl)-N-ethylamino)benzoic acid], for which the melting point lay in the range of 179 to 180 °C.

For `CC(C)N(c1ccc(C(=O)O)cc1)c1nc(-c2cccc(OCc3ccc(C4CCCCC4)cc3)c2)cs1` [Example 141, 4-(N-(4-(3-(4-cyclohexylbenzyloxy)phenyl)-2-thiazolyl)-N-isopropylamino)benzoic acid], the melting point is 189 to 190 °C.

In the case of `O=C(O)c1ccc(N(CC2CCCCC2)c2nc(-c3cccc(OCc4ccc(C5CCCCC5)cc4)c3)cs2)cc1` [Example 142, 4-(N-(4-(3-(4-cyclohexylbenzyloxy)phenyl)-2-thiazolyl)-N-cyclohexylmethylamino)benzoic acid], the melting point is 195 to 197 °C.

In turn, `CC(C)N(Cc1ccc(C(=O)O)cc1)c1nc(-c2cccc(NC(=O)c3ccc(C4CCCCC4)cc3)c2)cs1` [Example 146, 4-((N-(4-(3-(4-cyclohexylbenzoylamino)phenyl)-2-thiazolyl)-N-isopropylamino)methyl)benzoic acid] registered a melting point of 228 to 230 °C.

Regarding `O=C(O)c1ccc(Nc2nc(-c3cc(Cl)ccc3OCc3ccccc3)cs2)cc1` [Example 148, 4-(4-(2-benzyloxy-5-chlorophenyl)-2-thiazolylamino)benzoic acid], the melting point lay within 208 to 211 °C.

The compound `CC(C)(c1ccc(C(=O)O)cc1)c1nc(-c2cc(Cl)ccc2OCc2ccccc2)cs1` [Example 149, 4-(1-(4-(2-benzyloxy-5-chlorophenyl)-2-thiazolyl)-1-methylethyl)benzoic acid] came in with a melting point of 152 to 154 °C.

As for `O=C(O)c1ccc(Nc2nc(-c3cc(Cl)ccc3OCc3ccccc3)cs2)c(OCCC2CCCCC2)c1` [Example 150, 4-(4-(2-benzyloxy-5-chlorophenyl)-2-thiazolylamino)-3-(2-cyclohexylethoxy)benzoic acid], the melting point is 230 °C (dec.).

The compound `CN(c1ccc(C(=O)O)cc1)c1nc(-c2cc(Cl)ccc2OCc2ccccc2)cs1` [Example 151, 4-(N-(4-(2-benzyloxy-5-chlorophenyl)-2-thiazolyl)-N-methylamino)benzoic acid] displayed a melting point of 211 to 212 °C.

`O=C(O)c1ccc(N(CCC2CCCCC2)c2nc(-c3cc(Cl)ccc3OCc3ccccc3)cs2)cc1` [Example 152, 4-(N-(4-(2-benzyloxy-5-chlorophenyl)-2-thiazolyl)-N-(2-cyclohexylethyl)amino)benzoic acid]: the melting point fell in the range of 160 to 163 °C.

As for `O=C(O)c1ccc(N(CCOc2ccccc2)c2nc(-c3cc(Cl)ccc3OCc3ccccc3)cs2)cc1` [Example 153, 4-(N-(4-(2-benzyloxy-5-chlorophenyl)-2-thiazolyl)-N-(2-phenoxyethyl)amino)benzoic acid], the melting point was 152 to 155 °C.

Compound `COc1ccc(OCc2ccccc2)c(-c2csc(Nc3ccc(C(=O)O)cc3)n2)c1` [Example 154, 4-(4-(2-benzyloxy-5-methoxyphenyl)-2-thiazolylamino)benzoic acid] showed a melting point of 184 to 185 °C.

Compound `COc1ccc(OCc2ccc(C(F)(F)F)cc2)c(-c2csc(Nc3ccc(C(=O)O)cc3)n2)c1` [Example 155, 4-(4-(5-methoxy-2-(4-trifluoromethylbenzyloxy)phenyl)-2-thiazolylamino)benzoic acid] came in with a melting point of 218 to 219 °C.

Regarding `COc1ccc(OCc2ccccc2)c(-c2csc(Nc3ccc(C(=O)O)cc3OCc3ccccc3)n2)c1` [Example 156, 3-benzyloxy-4-(4-(2-benzyloxy-5-methoxyphenyl)-2-thiazolylamino)benzoic acid], the melting point lay within 218 to 221 °C.

`COc1ccc(OCc2ccc(C3CCCCC3)cc2)c(-c2csc(Nc3ccc(C(=O)O)cc3)n2)c1` [Example 157, 4-(4-(2-(4-cyclohexylbenzyloxy)-5-methoxyphenyl)-2-thiazolylamino)benzoic acid] had a melting point of 230 to 234 °C.

As for `O=C(O)c1cc(Cc2nc(-c3cc(Cl)ccc3OCc3ccccc3)cs2)ccc1O` [Example 158, 5-(4-(2-benzyloxy-5-chlorophenyl)-2-thiazolylmethyl)-2-hydroxybenzoic acid], the melting point fell in the range of 212 to 213 °C.

`O=C(O)c1ccc(N(Cc2ccc(C(F)(F)F)cc2)c2nc(-c3cc(Cl)ccc3OCc3ccccc3)cs2)cc1` [Example 159, 4-(N-(4-(2-benzyloxy-5-chlorophenyl)-2-thiazolyl)-N-(4-trifluoromethylbenzyl)amino)benzoic acid] had a melting point of 194 to 196 °C.

Consider `O=C(O)c1ccc(N(CC2CCCCC2)c2nc(-c3cc(Cl)ccc3OCc3ccccc3)cs2)cc1` [Example 160, 4-(N-(4-(2-benzyloxy-5-chlorophenyl)-2-thiazolyl)-N-cyclohexylmethylamino)benzoic acid], for which the melting point was 184 to 185 °C.

The record behind these values is patent publication US7163952B2, “Azole compound and medicinal use thereof” (Japan Tobacco Inc., priority 2001, dated 2007).
